Assay results as given in patent US8741944B2, “Anti-infective agents against intracellular pathogens” (priority 2007, dated 2014).
Where two headings read alike, the source gives them in different places.

Experiments:
SR (Leukemia) = experiment: NCI DTP tumor cell line screen (SRB), SR
Procedure: (§1) For a typical screening experiment, cells are inoculated into 96 well microtiter plates in 100 μL at plating densities ranging from 5,000 to 40,000 cells/well depending on the doubling time of individual cell lines. After cell inoculation, the microtiter plates are incubated at 37° C., 5% CO2, 95% air and 100% relative humidity for 24 h prior to addition of experimental drugs.
(§2) After 24 h, two plates of each cell line are fixed in situ with TCA, to represent a measurement of the cell population for each cell line at the time of drug addition (Tz). Experimental drugs are solubilized in dimethyl sulfoxide at 400-fold the desired final maximum test concentration and stored frozen prior to use. At the time of drug addition, an aliquot of frozen concentrate is thawed and diluted to twice the desired final maximum test concentration with complete medium containing 50 μg/ml gentamicin. Additional four, 10-fold or ½ log serial dilutions are made to provide a total of five drug concentrations plus control. Aliquots of 100 μl of these different drug dilutions are added to the appropriate microtiter wells already containing 100 μl of medium, resulting in the required final drug concentrations.
(§3) Following drug addition, the plates are incubated for an additional 48 h at 37° C., 5% CO2, 95% air, and 100% relative humidity. For adherent cells, the assay is terminated by the addition of cold TCA. Cells are fixed in situ by the gentle addition of 50 μl of cold 50% (w/v) TCA (final concentration, 10% TCA) and incubated for 60 minutes at 4° C. The supernatant is discarded, and the plates are washed five times with tap water and air dried. Sulforhodamine B (SRB) solution (1001) at 0.4% (w/v) in 1% acetic acid is added to each well, and plates are incubated for 10 minutes at room temperature. After staining, unbound dye is removed by washing five times with 1% acetic acid and the plates are air dried. Bound stain is subsequently solubilized with 10 mM trizma base, and the absorbance is read on an automated plate reader at a wavelength of 515 nm. For suspension cells, the methodology is the same except that the assay is terminated by fixing settled cells at the bottom of the wells by gently adding 50 μl of 80% TCA (final concentration, 16% TCA). Using the seven absorbance measurements [time zero, (Tz), control growth, (C), and test growth in the presence of drug at the five concentration levels (Ti)], the percentage growth is calculated at each of the drug concentrations levels. Percentage growth inhibition is calculated as: [(Ti−Tz)/(C−Tz)]×100 for concentrations for which Ti>/=Tz [(Ti−Tz)/Tz]×100 for concentrations for which Ti<Tz
(§4) Three dose response parameters are calculated for each experimental agent. […] The drug concentration resulting in total growth inhibition (TGI) is calculated from Ti=Tz. […] Values are calculated for each of these three parameters if the level of activity is reached; however, if the effect is not reached or is exceeded, the value for that parameter is expressed as greater or less than the maximum or minimum concentration tested.

[1] = system: EKVX (Non-Small Cell Lung Cancer); experiment: NCI DTP tumor cell line screen (SRB), EKVX
Procedure: as §1, §2, §3, §4

A498 (Renal Cancer) = experiment: NCI DTP tumor cell line screen (SRB), A498
Procedure: as §1, §2, §3, §4

TK-10 (Renal Cancer) = experiment: NCI DTP tumor cell line screen (SRB), TK-10
Procedure: as §1, §2, §3, §4

MOLT-4 (Leukemia) = experiment: NCI DTP tumor cell line screen (SRB), MOLT-4
Procedure: as §1, §2, §3, §4

SW-620 (Colon Cancer) = experiment: NCI DTP tumor cell line screen (SRB), SW-620
Procedure: as §1, §2, §3, §4

CAKI-1 (Renal Cancer) = experiment: NCI DTP tumor cell line screen (SRB), CAKI-1
Procedure: as §1, §2, §3, §4

DU-145 (Prostate Cancer) = experiment: NCI DTP tumor cell line screen (SRB), DU-145
Procedure: as §1, §2, §3, §4

[2] = system: NCI-H23 (Non-Small Cell Lung Cancer)
Procedure: as §1, §2, §3, §4

OVCAR-3 (Ovarian Cancer) = experiment: NCI DTP tumor cell line screen (SRB), OVCAR-3
Procedure: as §1, §2, §3, §4

OVCAR-4 (Ovarian Cancer) = experiment: NCI DTP tumor cell line screen (SRB), OVCAR-4
Procedure: as §1, §2, §3, §4

OVCAR-5 (Ovarian Cancer) = experiment: NCI DTP tumor cell line screen (SRB), OVCAR-5
Procedure: as §1, §2, §3, §4

[3] = system: NCI-H522 (Non-Small Cell Lung Cancer)
Procedure: as §1, §2, §3, §4

[4] = system: A549/ATCC (Non-Small Cell Lung Cancer); experiment: NCI DTP tumor cell line screen (SRB), A549/ATCC
Procedure: as §1, §2, §3, §4

[5] = system: MDA-MB-231/ATCC (Breast Cancer); experiment: NCI DTP tumor cell line screen (SRB), MDA-MB-231/ATCC
Procedure: as §1, §2, §3, §4

NCC(=O)Nc1ccc(-n2nc(C(F)(F)F)cc2-c2ccc3c(ccc4ccccc43)c2)cc1 [Compound 70, 2-Amino-N-{4-[5-(2-phenanthrenyl)-3-(trifluoromethyl)-1H-pyrazol-1-yl]-phenyl}-acetamide]
TGI (SR (Leukemia)): 4.17E−06 | Mean Optical Densities (SR (Leukemia); Log10 Concentration −4.0): 0.363 | Mean Optical Densities (SR (Leukemia); Log10 Concentration −5.0): 0.265 | Percent Growth (SR (Leukemia); Log10 Concentration −5.0): −27% | Mean Optical Densities (SR (Leukemia); Log10 Concentration −6.0): 0.605 | Percent Growth (SR (Leukemia); Log10 Concentration −6.0): 45% | Mean Optical Densities (SR (Leukemia); Log10 Concentration −7.0): 0.796 | Percent Growth (SR (Leukemia); Log10 Concentration −7.0): 80% | Mean Optical Densities (SR (Leukemia); Log10 Concentration −8.0): 0.816 | Percent Growth (SR (Leukemia); Log10 Concentration −8.0): 84% | TGI [1]: 3.25E−06 | Mean Optical Densities ([1]; Log10 Concentration −4.0): 0.193 | Mean Optical Densities ([1]; Log10 Concentration −5.0): 0.156 | Percent Growth ([1]; Log10 Concentration −5.0): −72% | Mean Optical Densities ([1]; Log10 Concentration −6.0): 0.786 | Percent Growth ([1]; Log10 Concentration −6.0): 75% | Mean Optical Densities ([1]; Log10 Concentration −7.0): 0.860 | Percent Growth ([1]; Log10 Concentration −7.0): 100% | Mean Optical Densities ([1]; Log10 Concentration −8.0): 0.891 | Percent Growth ([1]; Log10 Concentration −8.0): 110% | TGI (A498 (Renal Cancer)): 5.75E−06 | Mean Optical Densities (A498 (Renal Cancer); Log10 Concentration −4.0): 0.433 | Mean Optical Densities (A498 (Renal Cancer); Log10 Concentration −5.0): 0.660 | Percent Growth (A498 (Renal Cancer); Log10 Concentration −5.0): −30% | Mean Optical Densities (A498 (Renal Cancer); Log10 Concentration −6.0): 2.201 | Percent Growth (A498 (Renal Cancer); Log10 Concentration −6.0): 95% | Mean Optical Densities (A498 (Renal Cancer); Log10 Concentration −7.0): 2.598 | Percent Growth (A498 (Renal Cancer); Log10 Concentration −7.0): 126% | Mean Optical Densities (A498 (Renal Cancer); Log10 Concentration −8.0): 2.230 | Percent Growth (A498 (Renal Cancer); Log10 Concentration −8.0): 98% | TGI (TK-10 (Renal Cancer)): 3.10E−06 | Mean Optical Densities (TK-10 (Renal Cancer); Log10 Concentration −4.0): 0.200 | Mean Optical Densities (TK-10 (Renal Cancer); Log10 Concentration −5.0): 0.138 | Percent Growth (TK-10 (Renal Cancer); Log10 Concentration −5.0): −80% | Mean Optical Densities (TK-10 (Renal Cancer); Log10 Concentration −6.0): 1.304 | Percent Growth (TK-10 (Renal Cancer); Log10 Concentration −6.0): 77% | Mean Optical Densities (TK-10 (Renal Cancer); Log10 Concentration −7.0): 1.492 | Percent Growth (TK-10 (Renal Cancer); Log10 Concentration −7.0): 100% | Mean Optical Densities (TK-10 (Renal Cancer); Log10 Concentration −8.0): 1.512 | Percent Growth (TK-10 (Renal Cancer); Log10 Concentration −8.0): 102% | TGI (MOLT-4 (Leukemia)): 3.10E−06 | Mean Optical Densities (MOLT-4 (Leukemia); Log10 Concentration −4.0): 0.296 | Mean Optical Densities (MOLT-4 (Leukemia); Log10 Concentration −5.0): 0.180 | Percent Growth (MOLT-4 (Leukemia); Log10 Concentration −5.0): −42% | Mean Optical Densities (MOLT-4 (Leukemia); Log10 Concentration −6.0): 0.614 | Percent Growth (MOLT-4 (Leukemia); Log10 Concentration −6.0): 41% | Mean Optical Densities (MOLT-4 (Leukemia); Log10 Concentration −7.0): 0.951 | Percent Growth (MOLT-4 (Leukemia); Log10 Concentration −7.0): 87% | Mean Optical Densities (MOLT-4 (Leukemia); Log10 Concentration −8.0): 0.964 | Percent Growth (MOLT-4 (Leukemia); Log10 Concentration −8.0): 89% | TGI (SW-620 (Colon Cancer)): 4.23E−06 | Mean Optical Densities (SW-620 (Colon Cancer); Log10 Concentration −4.0): 0.136 | Mean Optical Densities (SW-620 (Colon Cancer); Log10 Concentration −5.0): 0.127 | Percent Growth (SW-620 (Colon Cancer); Log10 Concentration −5.0): −32% | Mean Optical Densities (SW-620 (Colon Cancer); Log10 Concentration −6.0): 0.736 | Percent Growth (SW-620 (Colon Cancer); Log10 Concentration −6.0): 54% | Mean Optical Densities (SW-620 (Colon Cancer); Log10 Concentration −7.0): 1.198 | Percent Growth (SW-620 (Colon Cancer); Log10 Concentration −7.0): 100% | Mean Optical Densities (SW-620 (Colon Cancer); Log10 Concentration −8.0): 1.197 | Percent Growth (SW-620 (Colon Cancer); Log10 Concentration −8.0): 100% | TGI (CAKI-1 (Renal Cancer)): 2.27E−06 | Mean Optical Densities (CAKI-1 (Renal Cancer); Log10 Concentration −4.0): 0.335 | Mean Optical Densities (CAKI-1 (Renal Cancer); Log10 Concentration −5.0): 0.147 | Percent Growth (CAKI-1 (Renal Cancer); Log10 Concentration −5.0): −75% | Mean Optical Densities (CAKI-1 (Renal Cancer); Log10 Concentration −6.0): 1.126 | Percent Growth (CAKI-1 (Renal Cancer); Log10 Concentration −6.0): 42% | Mean Optical Densities (CAKI-1 (Renal Cancer); Log10 Concentration −7.0): 1.802 | Percent Growth (CAKI-1 (Renal Cancer); Log10 Concentration −7.0): 95% | Mean Optical Densities (CAKI-1 (Renal Cancer); Log10 Concentration −8.0): 1.692 | Percent Growth (CAKI-1 (Renal Cancer); Log10 Concentration −8.0): 87% | TGI (DU-145 (Prostate Cancer)): 3.47E−06 | Mean Optical Densities (DU-145 (Prostate Cancer); Log10 Concentration −4.0): 0.132 | Mean Optical Densities (DU-145 (Prostate Cancer); Log10 Concentration −5.0): 0.078 | Percent Growth (DU-145 (Prostate Cancer); Log10 Concentration −5.0): −76% | Mean Optical Densities (DU-145 (Prostate Cancer); Log10 Concentration −6.0): 0.895 | Percent Growth (DU-145 (Prostate Cancer); Log10 Concentration −6.0): 90% | Mean Optical Densities (DU-145 (Prostate Cancer); Log10 Concentration −7.0): 1.018 | Percent Growth (DU-145 (Prostate Cancer); Log10 Concentration −7.0): 109% | Mean Optical Densities (DU-145 (Prostate Cancer); Log10 Concentration −8.0): 0.993 | Percent Growth (DU-145 (Prostate Cancer); Log10 Concentration −8.0): 105% | TGI [2]: 2.87E−06 | Mean Optical Densities ([2]; Log10 Concentration −4.0): 0.156 | Mean Optical Densities ([2]; Log10 Concentration −5.0): 0.097 | Percent Growth ([2]; Log10 Concentration −5.0): −79% | Mean Optical Densities ([2]; Log10 Concentration −6.0): 1.255 | Percent Growth ([2]; Log10 Concentration −6.0): 67% | Mean Optical Densities ([2]; Log10 Concentration −7.0): 1.673 | Percent Growth ([2]; Log10 Concentration −7.0): 102% | Mean Optical Densities ([2]; Log10 Concentration −8.0): 1.672 | Percent Growth ([2]; Log10 Concentration −8.0): 101% | TGI (OVCAR-3 (Ovarian Cancer)): 3.32E−06 | Mean Optical Densities (OVCAR-3 (Ovarian Cancer); Log10 Concentration −4.0): 0.301 | Mean Optical Densities (OVCAR-3 (Ovarian Cancer); Log10 Concentration −5.0): 0.140 | Percent Growth (OVCAR-3 (Ovarian Cancer); Log10 Concentration −5.0): −70% | Mean Optical Densities (OVCAR-3 (Ovarian Cancer); Log10 Concentration −6.0): 0.816 | Percent Growth (OVCAR-3 (Ovarian Cancer); Log10 Concentration −6.0): 76% | Mean Optical Densities (OVCAR-3 (Ovarian Cancer); Log10 Concentration −7.0): 0.849 | Percent Growth (OVCAR-3 (Ovarian Cancer); Log10 Concentration −7.0): 83% | Mean Optical Densities (OVCAR-3 (Ovarian Cancer); Log10 Concentration −8.0): 0.879 | Percent Growth (OVCAR-3 (Ovarian Cancer); Log10 Concentration −8.0): 89% | TGI (OVCAR-4 (Ovarian Cancer)): 3.41E−06 | Mean Optical Densities (OVCAR-4 (Ovarian Cancer); Log10 Concentration −4.0): 0.172 | Mean Optical Densities (OVCAR-4 (Ovarian Cancer); Log10 Concentration −5.0): 0.093 | Percent Growth (OVCAR-4 (Ovarian Cancer); Log10 Concentration −5.0): −82% | Mean Optical Densities (OVCAR-4 (Ovarian Cancer); Log10 Concentration −6.0): 1.086 | Percent Growth (OVCAR-4 (Ovarian Cancer); Log10 Concentration −6.0): 94% | Mean Optical Densities (OVCAR-4 (Ovarian Cancer); Log10 Concentration −7.0): 1.073 | Percent Growth (OVCAR-4 (Ovarian Cancer); Log10 Concentration −7.0): 92% | Mean Optical Densities (OVCAR-4 (Ovarian Cancer); Log10 Concentration −8.0): 1.114 | Percent Growth (OVCAR-4 (Ovarian Cancer); Log10 Concentration −8.0): 99% | TGI (OVCAR-5 (Ovarian Cancer)): 3.32E−06 | Mean Optical Densities (OVCAR-5 (Ovarian Cancer); Log10 Concentration −4.0): 0.149 | Mean Optical Densities (OVCAR-5 (Ovarian Cancer); Log10 Concentration −5.0): 0.087 | Percent Growth (OVCAR-5 (Ovarian Cancer); Log10 Concentration −5.0): −83% | Mean Optical Densities (OVCAR-5 (Ovarian Cancer); Log10 Concentration −6.0): 1.412 | Percent Growth (OVCAR-5 (Ovarian Cancer); Log10 Concentration −6.0): 90% | Mean Optical Densities (OVCAR-5 (Ovarian Cancer); Log10 Concentration −7.0): 1.540 | Percent Growth (OVCAR-5 (Ovarian Cancer); Log10 Concentration −7.0): 103% | Mean Optical Densities (OVCAR-5 (Ovarian Cancer); Log10 Concentration −8.0): 1.480 | Percent Growth (OVCAR-5 (Ovarian Cancer); Log10 Concentration −8.0): 97% | TGI [3]: 3.94E−06 | Mean Optical Densities ([3]; Log10 Concentration −4.0): 0.486 | Mean Optical Densities ([3]; Log10 Concentration −5.0): 0.260 | Percent Growth ([3]; Log10 Concentration −5.0): −66% | Mean Optical Densities ([3]; Log10 Concentration −6.0): 1.528 | Percent Growth ([3]; Log10 Concentration −6.0): 97% | Mean Optical Densities ([3]; Log10 Concentration −7.0): 1.718 | Percent Growth ([3]; Log10 Concentration −7.0): 122% | Mean Optical Densities ([3]; Log10 Concentration −8.0): 1.626 | Percent Growth ([3]; Log10 Concentration −8.0): 110% | TGI [4]: 2.96E−06 | Mean Optical Densities ([4]; Log10 Concentration −4.0): 0.252 | Mean Optical Densities ([4]; Log10 Concentration −5.0): 0.155 | Percent Growth ([4]; Log10 Concentration −5.0): −57% | Mean Optical Densities ([4]; Log10 Concentration −6.0): 0.831 | Percent Growth ([4]; Log10 Concentration −6.0): 51% | Mean Optical Densities ([4]; Log10 Concentration −7.0): 1.149 | Percent Growth ([4]; Log10 Concentration −7.0): 86% | Mean Optical Densities ([4]; Log10 Concentration −8.0): 1.294 | Percent Growth ([4]; Log10 Concentration −8.0): 102% | TGI [5]: 2.77E−06 | Mean Optical Densities ([5]; Log10 Concentration −4.0): 0.306 | Mean Optical Densities ([5]; Log10 Concentration −5.0): 0.173 | Percent Growth ([5]; Log10 Concentration −5.0): −73% | Mean Optical Densities ([5]; Log10 Concentration −6.0): 0.843 | Percent Growth ([5]; Log10 Concentration −6.0): 58% | Mean Optical Densities ([5]; Log10 Concentration −7.0): 0.889 | Percent Growth ([5]; Log10 Concentration −7.0): 71% | Mean Optical Densities ([5]; Log10 Concentration −8.0): 0.988 | Percent Growth ([5]; Log10 Concentration −8.0): 100%
